Holding throughout (type): functional
Test [1] concerns Streptococcus pyogenes. The test can be described thus: Antibacterial activity against Streptococcus pyogenes ERSPy-1 expressing mef by the broth microdilution method. (Dilution methods test growth across graded concentrations, often in twofold steps.)
The test system of test [2] is Streptococcus pyogenes. In words: Antibacterial activity against erythromycin-resistant Streptococcus pyogenes 8902 expressing ermB by the broth microdilution method.
Test [3] deals with Staphylococcus aureus. The test can be described thus: Antibacterial activity against methicillin-susceptible Staphylococcus aureus ATCC 29213 by the broth microdilution method.
Test [4] relates to Streptococcus pneumoniae. In words: Antibacterial activity against erythromycin-resistant Streptococcus pneumoniae ERSP-2 expressing ermB and mef by the broth microdilution method.
Test [5] deals with Staphylococcus epidermidis. The test can be described thus: Antibacterial activity against methicillin-resistant Staphylococcus epidermidis MRSE-1 by the broth microdilution method.
Test [6] concerns Staphylococcus aureus. In words: Antibacterial activity against methicillin-resistant Staphylococcus aureus BK2464 by the broth microdilution method.
Test [7] relates to Streptococcus pyogenes. The test can be described thus: Ratio of compound MIC to clarithromycin MIC for erythromycin-resistant Streptococcus pyogenes 8902 expressing ermB.
For test [8], the system named is Streptococcus pneumoniae. In words: Ratio of compound MIC to clarithromycin MIC for erythromycin-resistant Streptococcus pneumoniae ERSP-2 expressing ermB and mef.
Test [9] has as its system Streptococcus pyogenes. In words: Ratio of compound MIC to clarithromycin MIC for Streptococcus pyogenes ERSPy-1 expressing mef.

The structures appear in SMILES notation. ≈ marks a conversion by molar mass, not a printed value.

Take `CC[C@H]1OC(=O)[C@H](C)[C@@H](O[C@H]2C[C@@](C)(OC)[C@@H](O[C@@H]3O[C@H](CO)[C@@H](O)[C@H](O)[C@H]3O)[C@H](C)O2)[C@H](C)[C@@H](O[C@@H]2O[C@H](C)C[C@H](N(C)C)[C@H]2O)[C@](C)(OC)C[C@@H](C)C(=O)[C@H](C)[C@@H](O)[C@]1(C)O`: the minimum inhibitory concentration (MIC) (in general, the lowest concentration that inhibits growth of the organism) is 16 µg/mL (≈ 17.6 µM) against Streptococcus pyogenes [1]; 16 µg/mL (≈ 17.6 µM) with Streptococcus pyogenes [2]; more than 16 µg/mL in the test on Staphylococcus aureus [3]; 16 µg/mL (≈ 17.6 µM) in the test with Streptococcus pneumoniae [4]; 16 µg/mL (≈ 17.6 µM) in test [5]; more than 16 µg/mL in the test with Staphylococcus aureus [6].

As for `CC[C@H]1OC(=O)[C@H](C)[C@@H](O[C@H]2C[C@@](C)(OC)[C@@H](O[C@@H]3O[C@H](CO)[C@@H](O)[C@H](O)[C@H]3OC(C)=O)[C@H](C)O2)[C@H](C)[C@@H](O[C@@H]2O[C@H](C)C[C@H](N(C)C)[C@H]2O)[C@](C)(OC)C[C@@H](C)C(=O)[C@H](C)[C@@H](O)[C@]1(C)O`, the MIC was 16 µg/mL (≈ 16.8 µM) in the test with Streptococcus pyogenes [1]; more than 16 µg/mL in the test with Streptococcus pyogenes [2]; more than 16 µg/mL in the test on Staphylococcus aureus [3]; 16 µg/mL (≈ 16.8 µM) in the test with Streptococcus pneumoniae [4]; more than 16 µg/mL in test [5]; more than 16 µg/mL with Staphylococcus aureus [6].

Consider `CC[C@H]1OC(=O)[C@H](C)[C@@H](O[C@H]2C[C@@](C)(OC)[C@@H](O[C@@H]3O[C@H](COC(=O)c4ccccc4)[C@@H](OC(=O)c4ccccc4)[C@H](OC(C)=O)[C@H]3OC(C)=O)[C@H](C)O2)[C@H](C)[C@@H](O[C@@H]2O[C@H](C)C[C@H](N(C)C)[C@H]2O)[C@](C)(OC)C[C@@H](C)C(=O)[C@H](C)[C@@H](O)[C@]1(C)O`, for which the MIC is 8 µg/mL (≈ 6.65 µM) in the test with Streptococcus pyogenes [1]; 16 µg/mL (≈ 13.3 µM) in the test on Streptococcus pyogenes [2]; more than 16 µg/mL against Staphylococcus aureus [3]; 16 µg/mL (≈ 13.3 µM) in the test on Streptococcus pneumoniae [4]; 16 µg/mL (≈ 13.3 µM) in test [5]; more than 16 µg/mL against Staphylococcus aureus [6].

In the case of `CC[C@H]1OC(=O)[C@H](C)[C@@H](O[C@H]2C[C@@](C)(OC)[C@@H](O[C@@H]3O[C@H](COC(=O)c4ccccc4)[C@@H](O)[C@H](O)[C@H]3OC(C)=O)[C@H](C)O2)[C@H](C)[C@@H](O[C@@H]2O[C@H](C)C[C@H](N(C)C)[C@H]2O)[C@](C)(OC)C[C@@H](C)C(=O)[C@H](C)[C@@H](O)[C@]1(C)O`, the MIC against Streptococcus pyogenes [1] is 8 µg/mL (≈ 7.57 µM); in the test with Streptococcus pyogenes [2], 16 µg/mL (≈ 15.1 µM); with Staphylococcus aureus [3], 16 µg/mL (≈ 15.1 µM); against Streptococcus pneumoniae [4] it was 8 µg/mL (≈ 7.57 µM); in test [5] it was 16 µg/mL (≈ 15.1 µM); in the test on Staphylococcus aureus [6], more than 16 µg/mL.

On to `CC[C@H]1OC(=O)[C@H](C)[C@@H](O[C@H]2C[C@@](C)(OC)[C@@H](O[C@H]3O[C@H](COC(C)=O)[C@@H](OC(=O)c4ccccc4)[C@H](OC(C)=O)[C@H]3OC(C)=O)[C@H](C)O2)[C@H](C)[C@@H](O[C@@H]2O[C@H](C)C[C@H](N(C)C)[C@H]2O)[C@](C)(OC)C[C@@H](C)C(=O)[C@H](C)[C@@H](O)[C@]1(C)O`, for which the MIC against Streptococcus pyogenes [1] is 1 µg/mL (≈ 0.877 µM); in the test with Streptococcus pyogenes [2], 16 µg/mL (≈ 14 µM); with Staphylococcus aureus [3], 16 µg/mL (≈ 14 µM); against Streptococcus pneumoniae [4] it was 16 µg/mL (≈ 14 µM); in test [5] it was 16 µg/mL (≈ 14 µM); against Staphylococcus aureus [6], more than 16 µg/mL.

Consider `CC[C@H]1OC(=O)[C@H](C)[C@@H](O[C@H]2C[C@@](C)(OC)[C@@H](O[C@@H]3O[C@H](CO)[C@@H](O[C@H]4O[C@@H](CO)[C@H](O)[C@@H](O)[C@@H]4O)[C@H](O)[C@H]3O)[C@H](C)O2)[C@H](C)[C@@H](O[C@@H]2O[C@H](C)C[C@H](N(C)C)[C@H]2O)[C@](C)(OC)C[C@@H](C)C(=O)[C@H](C)[C@@H](O)[C@]1(C)O`, for which the MIC with Streptococcus pyogenes [1] is more than 16 µg/mL; against Streptococcus pyogenes [2], more than 16 µg/mL; in the test on Staphylococcus aureus [3], more than 16 µg/mL; against Streptococcus pneumoniae [4] it was 16 µg/mL (≈ 14.9 µM); in [5], more than 16 µg/mL; in the test with Staphylococcus aureus [6] it was more than 16 µg/mL.

As to `CC[C@H]1OC(=O)[C@H](C)[C@@H](O[C@H]2C[C@@](C)(OC)[C@@H](O[C@@H]3O[C@H](CO)[C@@H](O)[C@H](O)[C@H]3O)[C@H](C)O2)[C@H](C)[C@@H](O[C@@H]2O[C@H](C)C[C@H](N(C)C)[C@H]2O)[C@](C)(OC)C[C@@H](C)C(=O)[C@H](C)[C@H]2N(CCCCn3cnc4cccnc43)C(=O)O[C@]12C`, the MIC against Streptococcus pyogenes [1] is 16 µg/mL (≈ 14.4 µM); against Streptococcus pyogenes [2], 16 µg/mL (≈ 14.4 µM); in the test with Staphylococcus aureus [3] it was more than 16 µg/mL; with Streptococcus pneumoniae [4], 8 µg/mL (≈ 7.22 µM); in [5], more than 16 µg/mL; in the test with Staphylococcus aureus [6], more than 16 µg/mL.

Regarding `CC[C@H]1OC(=O)[C@H](C)[C@@H](O[C@H]2C[C@@](C)(OC)[C@@H](O[C@@H]3O[C@@H]4COC(c5ccccc5)O[C@H]4[C@H](O)[C@H]3O)[C@H](C)O2)[C@H](C)[C@@H](O[C@@H]2O[C@H](C)C[C@H](N(C)C)[C@H]2O)[C@](C)(OC)C[C@@H](C)C(=O)[C@H](C)[C@H]2N(CCCCn3cnc4cccnc43)C(=O)O[C@]12C` (stereo not given in full), the Ratio in the test with Streptococcus pyogenes [7] stood at 8; in the test on Streptococcus pneumoniae [8], 8; in the test on Streptococcus pyogenes [9], 4. The MIC with Streptococcus pyogenes [1] was 0.5 µg/mL (≈ 0.418 µM); against Streptococcus pyogenes [2], 4 µg/mL (≈ 3.34 µM); with Staphylococcus aureus [3], 4 µg/mL (≈ 3.34 µM); against Streptococcus pneumoniae [4] it was 2 µg/mL (≈ 1.67 µM); in test [5], 4 µg/mL (≈ 3.34 µM); with Staphylococcus aureus [6] it was more than 16 µg/mL.

In the case of `CC[C@H]1OC(=O)[C@H](C)[C@@H](O[C@H]2C[C@@](C)(OC)[C@@H](O[C@@H]3O[C@H](CO)[C@@H](O)[C@H](O)[C@H]3O)[C@H](C)O2)[C@H](C)[C@@H](O[C@@H]2O[C@H](C)C[C@H](N(C)C)[C@H]2O)[C@](C)(OC)C[C@@H](C)C(=O)[C@H](C)[C@H]2N(CCCCn3cnc4ncccc43)C(=O)O[C@]12C`, the MIC was 8 µg/mL (≈ 7.22 µM) in the test with Streptococcus pyogenes [1]; 16 µg/mL (≈ 14.4 µM) with Streptococcus pyogenes [2]; more than 16 µg/mL in the test with Staphylococcus aureus [3]; 8 µg/mL (≈ 7.22 µM) in the test with Streptococcus pneumoniae [4]; more than 16 µg/mL in [5]; more than 16 µg/mL against Staphylococcus aureus [6].

`CC[C@H]1OC(=O)[C@H](C)[C@@H](O[C@H]2C[C@@](C)(OC)[C@@H](O[C@@H]3O[C@@H]4COC(c5ccccc5)O[C@H]4[C@H](O)[C@H]3O)[C@H](C)O2)[C@H](C)[C@@H](O[C@@H]2O[C@H](C)C[C@H](N(C)C)[C@H]2O)[C@](C)(OC)C[C@@H](C)C(=O)[C@H](C)[C@H]2N(CCCCn3cnc4ncccc43)C(=O)O[C@]12C` (stereo not given in full): the MIC was 2 µg/mL (≈ 1.67 µM) against Streptococcus pyogenes [1]; 8 µg/mL (≈ 6.69 µM) with Streptococcus pyogenes [2]; 4 µg/mL (≈ 3.34 µM) in the test on Staphylococcus aureus [3]; 1 µg/mL (≈ 0.836 µM) in the test on Streptococcus pneumoniae [4]; 4 µg/mL (≈ 3.34 µM) in [5]; more than 16 µg/mL in the test on Staphylococcus aureus [6].

As for `CC[C@H]1OC(=O)[C@H](C)[C@@H](O[C@H]2C[C@@](C)(OC)[C@@H](O)[C@H](C)O2)[C@H](C)[C@@H](O[C@@H]2O[C@H](C)C[C@H](N(C)C)[C@H]2O)[C@](C)(OC)C[C@@H](C)C(=O)[C@H](C)[C@@H](O)[C@]1(C)O` [CLARITHROMYCIN], the MIC in the test on Streptococcus pyogenes [1] is 2 µg/mL (≈ 2.67 µM); against Streptococcus pyogenes [2], 32 µg/mL (≈ 42.8 µM); in the test with Staphylococcus aureus [3] it was 0.25 µg/mL (≈ 0.334 µM); in the test on Streptococcus pneumoniae [4] it was 16 µg/mL (≈ 21.4 µM); in test [5], 16 µg/mL (≈ 21.4 µM); in the test with Staphylococcus aureus [6] it was more than 32 µg/mL.

`CC[C@H]1OC(=O)[C@H](C)C(=O)[C@H](C)[C@@H](O[C@@H]2O[C@H](C)C[C@H](N(C)C)[C@H]2O)[C@](C)(OC)C[C@@H](C)C(=O)[C@H](C)[C@H]2N(CCCCn3cnc(-c4cccnc4)c3)C(=O)O[C@]12C` [TELITHROMYCIN]: the MIC against Streptococcus pyogenes [1] was 0.25 µg/mL (≈ 0.308 µM); with Streptococcus pyogenes [2], 0.25 µg/mL (≈ 0.308 µM); against Staphylococcus aureus [3] it was 0.125 µg/mL (≈ 0.154 µM); against Streptococcus pneumoniae [4], 0.125 µg/mL (≈ 0.154 µM); in test [5], 0.125 µg/mL (≈ 0.154 µM); with Staphylococcus aureus [6] it was more than 32 µg/mL.
